Test results: a melting point compilation (Tetko et al.; mined from patent text by program, amines drawn as free bases though some values may be those of a salt)

Point of comparison: `Cc1c2c(nc3ccccc13)CCN(C(=O)c1ccc(Cl)cc1)CC2`, melting point 163 °C. Against it:
- COc1ccc(CN(C)c2ncnc3c(N4CCOCC4)nc(N4CCC(N(C)C)CC4)nc23)cc1 — lower, 109 to 110 °C
- Cn1c(COc2ccc(CC3SC(=O)NC3=O)cc2)nc2ccc(OCCc3ccc(NC(=O)Nc4ccc(C(F)(F)F)cc4)cc3)cc21 (stereo not drawn) — lower, 145 to 147 °C
- OC[C@H]1CCCC[C@H]1Nc1nccc(-n2nnc3ccccc32)n1 — higher, 206 to 208 °C
- COc1cnn(-c2cccc(CBr)c2)c(=O)c1OC — lower, 67 to 69 °C
- CNc1c(F)cc2c(=O)c(C(=O)O)cn(-c3cc(N)c(F)cc3Cl)c2c1Cl — higher, 273 °C
- COc1ccc(C2=NN(CC(=O)O)C(=O)[C@H]3CC=CC[C@@H]23)cc1OC (relative stereo) — higher, 178 to 180 °C
- CC(C)(CN)c1ccc(-n2c(-c3cc(-c4cnc5ccccc5c4)ccn3)c[nH]c2=O)cc1 — higher, 244 to 247 °C
- O=[N+]([O-])c1ccc(-c2c[nH]c(Cl)n2)cc1 — lower, 136 to 138 °C
- CC1NC(=O)NN=C1c1ccccc1OCc1ccccc1 (stereo not drawn) — higher, 200 to 203 °C
- CNC1=NC2(O)c3ccc(OCC(F)(F)C(F)(F)C(F)(F)F)cc3CC2S1 (stereo not drawn) — higher, 178 to 180 °C
- CN(C)C(=O)c1cccc(NC(=O)Oc2ccccc2)c1 — lower, 151 to 153 °C
- CCOC(=O)C(CC(C)C)NC(=O)C(Cc1ccccc1)NC(=O)CNC(=O)CNC(=O)C(Cc1ccc(OCc2ccccc2)cc1)NC(=O)OC(C)(C)C (stereo not drawn) — lower, 149 to 152 °C
- O=C1CC2(CCCC2)C(=O)N1c1ccncc1 — lower, 100 to 103 °C
- Cc1c(N)c(C)c2c(-c3ccc(C4CCCCC4)cc3)coc2c1C — lower, 139 to 140 °C
- COC(=O)CN(c1ccc(OC)cc1OC)S(N)(=O)=O — lower, 100 to 103 °C
- C[C@@H]1CN(c2c(F)cc3c(=O)c(C(=O)O)cn(C4CC4)c3c2F)C[C@H]1N (relative stereo) — higher, 257 to 260 °C
- CC(C)n1nc(-c2c(-c3ccccc3)nn3ccc(OCC(=O)OCc4ccccc4)cc23)ccc1=O — higher, 174 °C
- CC(=O)OC1CSC(Oc2ccc(-c3ccc(Cl)nc3)nc2)C(OC(C)=O)C1OC(C)=O (stereo not drawn) — higher, 204 °C
- COc1ccc2c(c1)N(c1ccccc1F)C(=O)C2(C)NC(=O)OCc1ccccc1 (stereo not drawn) — lower, 149 to 151 °C
- N#Cc1ccc2nc(-c3ccc(Br)o3)cn2c1 — higher, 212 to 214 °C
- Cc1ccc2c(c1)C(=O)c1ccccc1CC2 — lower, 34 to 35 °C
- CN(C)C1(Cc2ccccc2)CCC(O)(c2cc3ccccc3o2)CC1 (stereo not drawn) — lower, 121 to 124 °C
- CS(=O)(=O)c1ccc(-c2cnn(CC(F)(F)F)c(=O)c2Cc2ccccc2)cc1 — lower, 112 to 114 °C
- CS(=O)(=O)N1CCN(c2ccc(OC[C@H]3CCn4cc([N+](=O)[O-])nc4O3)cc2)CC1 — lower, 149 to 151 °C
- Cc1cc(C(C)(C)C)c(OP2OP(Oc3c(C(C)(C)C)cc(C)cc3C(C)(C)C)OP(Oc3c(C(C)(C)C)cc(C)cc3C(C)(C)C)O2)c(C(C)(C)C)c1 (stereo not drawn) — higher, 176 to 181 °C
- CC(C)CCOCc1cc(-n2nc(C(N)=O)nc2-c2ccccc2F)ccc1Cl — lower, 113 to 115 °C
- CC(C)CCNS(=O)(=O)c1cc(C(=O)NC2CCc3ccccc32)ccc1Oc1ccccc1 (stereo not drawn) — lower, 73 °C
- C=CCC(Cc1ccc(Cl)c(Cl)c1)NC(=O)c1cc(C)cc(C)c1 (stereo not drawn) — lower, 155 to 157 °C
- OCCNC(=S)NC(=Nc1ccccc1)c1ccccc1 — lower, 144 to 145 °C
- N#CCNC(=O)C(Cl)=C(Cl)Cl — lower, 58 to 60 °C
- Cc1cccc(C)c1/N=C1\SCC(=O)N1/N=C/c1ccc(-c2ncn(-c3ccc(OC(F)(F)F)cc3)n2)cc1 — higher, 209 to 213 °C
- Cc1c(CCl)ncn1S(=O)(=O)N(C)C — lower, 115 to 118 °C
- CCNC(=O)c1ccccc1N(C)C(C)(C)C — lower, 45 to 48 °C
- CC(=O)Nc1nc2ccccc2n1-c1nc(N2CCOCC2)nc(N2CCOCC2)n1 — lower, 150 to 153 °C
- CCn1cnc(/C=C/c2cn(-c3ccccc3)nc2OCc2ccc(OCc3nc(-c4ccc(CC(=O)O)cc4)oc3C)c(OC)c2)c1 — higher, 194 to 196 °C
- COc1ccc(-c2nc(C(C)=O)cn2-c2ccc(OC)cc2)cc1 — lower, 116 to 117 °C
- C=Cc1ccc(-c2ccccn2)cc1 — lower, 19.3 °C
- CSc1nnc(SCC(=O)C23CC4CC(CC(C4)C2)C3)s1 — lower, 134 to 135 °C
- CCOc1nc(=O)n(-c2cc(C(=O)OC)c(Cl)cc2F)c(=O)n1C — lower, 45 to 47 °C
- O=S(=O)(Nc1ccc(Cl)cc1-c1nc2ccc(S(=O)(=O)N3CCOCC3)cc2[nH]1)c1ccc(Cl)cc1 — higher, 225 to 228 °C
- O=C(Nc1ccc2c(c1)C(=O)CCCC2)OCc1ccccc1 — lower, 120 to 121 °C
- Cc1ccnc2c1N=C(C#N)c1cccnc1N2C1CC1 — higher, 192 to 193 °C
- CCCc1c(OCc2cccn3c(=O)c(CCC(=O)O)cnc23)ccc(C(C)=O)c1O — higher, 210 to 214 °C
- CC(=O)Nc1c(F)ccc2nc(C)ccc12 — higher, 232 to 235 °C
- Cc1cc(C)c2c(c1)cc(C(=O)OCc1ccccc1)n2CC(=O)OC(C)(C)C — lower, 115 °C
- Fc1ccc(Cn2c(NC3CCN(CCc4ccccn4)CC3)nc3cncnc32)cc1 — higher, 172 °C
- COc1cc2ncn(CCCCl)c(=O)c2cc1OC — lower, 143 °C
- CN1CCN(CC2(O)CC=Cc3ncccc32)CC1 (stereo not drawn) — lower, 126 to 127 °C
- COc1ccccc1C=CC=C(CC(N)C(=O)O)C(=O)O (stereo not drawn) — higher, 187 to 189 °C
- CCCCCCCCOc1ccc(C(=O)Oc2ccc(-c3ccc(OC(=O)[C@H]4CCCO4)cc3)cc2)cc1 — lower, 73 °C
- COc1ccccc1-c1ccc(Cl)c2c1S(=O)(=O)NC(C1CCCCC1)=N2 — lower, 100 to 105 °C
- COc1ccc(NC(=O)Oc2ccc3c(c2)N(Cc2ccccc2)CCC3)cc1 — higher, 170 °C
- CCCCCS(=O)(=O)NC(=O)/C=C/c1ccc(OCCOC)cc1Cc1ncc(Br)s1 — lower, 88.5 to 89.1 °C
- Cc1cccc(Oc2nc(-c3c[nH]nc3C)cs2)n1 — lower, 138 to 139 °C
- CC(C)(C)OC(=O)NC(C)(C)c1ccc(-c2nc(Nc3ccc(-n4ccnc4)cc3)ncc2Cl)cc1 — higher, 218 to 220 °C
- O=C1Nc2ccc(NC(=O)C(=O)N3CCC(Cc4ccc(F)cc4)CC3)cc2C1=O — higher, 205 to 206 °C
- COC(=O)c1sc2ccc(OC)cc2c1OCC#N — lower, 160 °C
- c1ccc(CNc2nnc(-c3ccc(CN4CCCCCC4)s3)s2)cc1 — higher, 165 to 166 °C
- CNc1ccc(Cl)nc1 — lower, 70 °C
- COc1ccc2[nH]c(-c3cc4cccnc4n3S(=O)(=O)c3ccc(C)cc3)cc2c1 — higher, 226 to 227 °C
- COc1ccc(CCN2CC(COc3cccc4c(=O)[nH]ccc34)OC2=O)cc1OC (stereo not drawn) — higher, 173 to 175 °C
- CC1(C)C(C=C(Cl)Cl)C1C(N)=O (stereo not drawn) — lower, 78 to 81 °C
- COc1ccc(S(=O)(=O)Nc2ccccc2NC(=O)c2ccncc2C)cc1 — higher, 194 to 195 °C
- COc1c2c(c(OC)c(OC)c1OC)CCC(CCOc1ccc(Cl)cc1)CC2 — lower, 98 to 102 °C
- c1cc(Nc2ccc(-n3cccc3)cn2)cc(-n2ccnc2)c1 — lower, 152 to 156 °C
- CCCCCCCC(=O)NCc1cccc(-c2ccc(C=CC(=O)O)cc2)c1 — higher, 176 °C
- CCOC(=O)N1CCN(c2nc3cccccc-3n2)CC1 — lower, 136 to 138 °C
